Reference: ChEMBL document CHEMBL1201862, “PubChem BioAssay data set” (2004)
Each block holds one molecule with its values, some of them ahead of it. Calls of active or inactive are those of the source.

Experiments:
[1] = HEp-2 cell cytotoxicity, dose response, cytotoxicity control for RSV inhibitor project, HTS (AID 2410); format: functional; details: human respiratory syncytial virus
[2] = inhibitors of Bluetongue virus cytopathic effect, confirmation, arbovirus, BSR cells (AID 1250); format: functional;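 note: protection from viral cytopathic effect measured as cell viability by ATP luminescence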
[3] = target: T1, Microphthalmia-associated transcription factor (Homo sapiens, UniProt O75030); assay: TRPM1 promoter luciferase signal decrease, dose response, MITF inhibitor project, cell-based, SK-MEL-5, cherry-picked, set 3 (AID 493073); format: functional
T1 sequence (O75030 whole entry): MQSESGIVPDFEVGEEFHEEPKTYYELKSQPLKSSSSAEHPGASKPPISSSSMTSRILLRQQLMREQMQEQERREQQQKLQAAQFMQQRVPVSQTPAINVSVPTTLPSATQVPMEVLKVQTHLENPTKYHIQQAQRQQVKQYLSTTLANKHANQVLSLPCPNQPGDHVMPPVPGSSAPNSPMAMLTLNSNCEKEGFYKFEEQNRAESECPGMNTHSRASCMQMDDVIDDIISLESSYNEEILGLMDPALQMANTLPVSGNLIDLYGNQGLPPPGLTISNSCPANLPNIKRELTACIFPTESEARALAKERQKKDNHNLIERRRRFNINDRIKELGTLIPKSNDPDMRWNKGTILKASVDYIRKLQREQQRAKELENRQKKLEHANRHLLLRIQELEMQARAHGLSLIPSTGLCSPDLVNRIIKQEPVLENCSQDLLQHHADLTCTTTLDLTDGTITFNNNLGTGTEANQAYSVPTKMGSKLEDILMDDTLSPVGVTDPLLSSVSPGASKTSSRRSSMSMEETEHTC

[4] = target: FAD-linked sulfhydryl oxidase ALR (Homo sapiens, UniProt P55789); assay: inhibitors of human ALR sulfhydryl oxidase, dose response, biochemical, H2O2 detection, luminescence, cherry-pick (AID 493248)
[5] = HEK293 cell cytotoxicity, dose response, cytotoxicity control, plate reader, cherry-picked samples (AID 743446); format: functional, cell-based
[6] = off-target signal loss in HeLa-CEM21 co-culture – HeLa F-luc CTL cells, cherry-picked, counter-screen for HIV-1 Env fusion inhibitor project, dose response (AID 652040); format: functional, cell-based;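 note: potency for signal decrease marking cytotoxic or nonspecific inhibition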
[7] = LGR2 antagonists, dose response, cell-based, HEK293, CRE-luciferase reporter, cherry pick, set 2 (AID 743343); format: functional;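 note: transfected cells were stimulated with diluted bursicon conditioned medium after compound addition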
Paired box protein Pax-8 = Paired box protein Pax-8 (Homo sapiens, UniProt Q06710); assay: inhibitors of PAX8-driven TPO luciferase reporter, dose response, RMG-I cells, cherry-pick (AID 687027); format: functional, cell-based;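 note: luciferase reporter driven by Pax8 target thyroperoxidase promoter measured by SteadyGlo luminescence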
[8] = ZM109 Env clade C HIV-1 fusion inhibitors, dose response, HeLa effector, CEM target cells, luciferase, cherry-pick (AID 652058); format: functional, cell-based
Aminopeptidase N = target: T2, Aminopeptidase N (Plasmodium falciparum FcB1/Columbia, UniProt O96935); assay: P. falciparum M1AAP inhibitors, biochemical, fluorogenic H-Leu-NHMec substrate, 1536-well (AID 1445); set-up: species or system Plasmodium falciparum 3D7, 3D7
T2 sequence (O96935 whole entry): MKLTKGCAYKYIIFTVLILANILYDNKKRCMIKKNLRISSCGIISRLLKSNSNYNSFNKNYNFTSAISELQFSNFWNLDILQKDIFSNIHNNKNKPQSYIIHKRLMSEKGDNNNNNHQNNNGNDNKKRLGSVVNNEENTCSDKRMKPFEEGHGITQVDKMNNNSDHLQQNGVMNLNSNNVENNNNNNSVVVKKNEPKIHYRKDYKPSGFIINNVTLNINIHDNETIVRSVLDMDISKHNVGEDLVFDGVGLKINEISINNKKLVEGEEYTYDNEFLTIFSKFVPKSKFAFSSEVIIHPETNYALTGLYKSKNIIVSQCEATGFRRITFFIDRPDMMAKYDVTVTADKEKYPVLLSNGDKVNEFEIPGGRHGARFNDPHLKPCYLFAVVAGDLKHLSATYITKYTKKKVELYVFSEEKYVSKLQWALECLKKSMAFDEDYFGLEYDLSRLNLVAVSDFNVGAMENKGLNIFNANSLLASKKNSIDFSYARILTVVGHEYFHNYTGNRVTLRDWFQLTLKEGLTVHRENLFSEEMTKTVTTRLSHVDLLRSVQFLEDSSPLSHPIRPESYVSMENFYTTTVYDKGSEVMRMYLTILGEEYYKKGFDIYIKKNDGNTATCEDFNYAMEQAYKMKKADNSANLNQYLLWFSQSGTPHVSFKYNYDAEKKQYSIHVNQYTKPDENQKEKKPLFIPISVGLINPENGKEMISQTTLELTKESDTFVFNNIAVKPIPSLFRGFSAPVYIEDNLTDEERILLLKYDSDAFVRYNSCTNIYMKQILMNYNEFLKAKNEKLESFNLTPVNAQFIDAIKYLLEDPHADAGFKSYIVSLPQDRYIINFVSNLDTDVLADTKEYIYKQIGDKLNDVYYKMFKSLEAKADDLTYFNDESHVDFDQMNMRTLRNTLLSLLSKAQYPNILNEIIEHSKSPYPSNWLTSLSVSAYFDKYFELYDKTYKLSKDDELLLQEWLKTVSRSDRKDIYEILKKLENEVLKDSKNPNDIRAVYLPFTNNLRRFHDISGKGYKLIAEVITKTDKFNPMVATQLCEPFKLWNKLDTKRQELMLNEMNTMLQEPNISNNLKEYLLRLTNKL

[9] = Luminescence-based counterscreen assay for KLF5 inhibitors: dose response cell-based high throughput screening assay to identify cytotoxic compounds using the IEC-6 intestinal epithelial cell line. [Related pubchem assays: 1700 (Primary screen.), 1834 (Confirmation screen.), 1858 (Summary AID.), 1905 (Counterscreen.)]; format: functional
[10] = inhibitors of HIV Env-driven cell fusion, dose response, cherry-pick (AID 652057); format: functional, cell-based
[11] = MC4R antagonists, dose response, counter-screen for LGR2 antagonist project, cell-based, plate reader, cherry pick (AID 743444); format: functional;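 note: transfected HEK 293 cells stimulated with alpha-MSH peptide; potency of inhibitors of the alpha-MSH evoked signal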
[12] = non-specific cell cytotoxicity, dose response, cytotoxicity control for PAX8 inhibitor project, plate reader, dry powder samples (AID 743021); format: functional, cell-based
HeLa = assay: HeLa cell cytotoxicity, dose response, cytotoxicity control, 24 h, cherry-picked samples (AID 504726); format: functional, cell-based; details: Homo sapiens;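 note: potency for cytotoxicity as loss of luminescence signal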
[13] = inhibitors of clade B AD8 Env fusion, dose response, cell-based, cherry-pick (AID 652062); format: functional;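 note: luciferase signal from cell-cell fusion driven by HIV-1 clade B AD8 Env; potency is for inhibitors of fusion seen as a drop in luminescence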
[14] = target: T3, Sentrin-specific protease 8 (Homo sapiens, UniProt Q96LD8); format: functional;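 note: luminescence read-out of SENP8 inhibition, dose-response confirmation following an ultra-high-throughput screen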
T3 sequence (Q96LD8 whole entry): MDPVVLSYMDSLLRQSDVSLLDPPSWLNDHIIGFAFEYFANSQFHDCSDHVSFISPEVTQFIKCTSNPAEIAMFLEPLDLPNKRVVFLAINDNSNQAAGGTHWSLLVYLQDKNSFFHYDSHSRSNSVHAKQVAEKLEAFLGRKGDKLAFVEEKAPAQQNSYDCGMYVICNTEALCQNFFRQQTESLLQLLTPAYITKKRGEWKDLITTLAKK

[15] = target: T4, Sentrin-specific protease 7 (Homo sapiens, UniProt Q9BQF6); format: functional;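 note: Luminescence-based dose-response confirmation of ultra-high-throughput screening hits, measuring inhibition of SENP7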
T4 sequence (Q9BQF6 whole entry): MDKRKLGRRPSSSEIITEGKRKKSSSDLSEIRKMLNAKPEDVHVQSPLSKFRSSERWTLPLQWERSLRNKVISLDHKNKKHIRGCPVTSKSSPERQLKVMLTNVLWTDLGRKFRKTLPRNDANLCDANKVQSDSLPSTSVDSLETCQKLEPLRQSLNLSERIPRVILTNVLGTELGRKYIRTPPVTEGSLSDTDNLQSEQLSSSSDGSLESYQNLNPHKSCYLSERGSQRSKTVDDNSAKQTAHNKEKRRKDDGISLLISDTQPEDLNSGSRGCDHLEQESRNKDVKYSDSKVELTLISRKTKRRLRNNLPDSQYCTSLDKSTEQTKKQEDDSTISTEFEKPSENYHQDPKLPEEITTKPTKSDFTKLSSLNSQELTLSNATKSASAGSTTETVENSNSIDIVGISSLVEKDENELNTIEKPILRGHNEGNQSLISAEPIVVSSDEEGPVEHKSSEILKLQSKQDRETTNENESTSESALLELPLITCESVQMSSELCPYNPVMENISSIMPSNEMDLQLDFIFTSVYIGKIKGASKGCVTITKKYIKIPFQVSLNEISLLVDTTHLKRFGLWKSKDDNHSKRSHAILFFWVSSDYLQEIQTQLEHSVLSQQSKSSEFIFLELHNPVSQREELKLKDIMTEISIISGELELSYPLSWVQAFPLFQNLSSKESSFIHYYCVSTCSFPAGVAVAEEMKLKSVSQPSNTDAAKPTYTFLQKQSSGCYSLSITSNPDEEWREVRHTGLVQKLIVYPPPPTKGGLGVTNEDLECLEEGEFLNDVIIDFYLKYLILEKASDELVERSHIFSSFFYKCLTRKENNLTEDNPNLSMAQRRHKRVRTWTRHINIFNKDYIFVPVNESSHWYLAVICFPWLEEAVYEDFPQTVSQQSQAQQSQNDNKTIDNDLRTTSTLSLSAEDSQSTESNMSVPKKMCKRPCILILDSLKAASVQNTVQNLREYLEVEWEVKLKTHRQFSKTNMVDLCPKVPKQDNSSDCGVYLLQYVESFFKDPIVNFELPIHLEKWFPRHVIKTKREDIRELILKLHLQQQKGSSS

HT-1080 = assay: cytotoxicity in HT1080 fibrosarcoma cells, cell-based, fluorescence readout (AID 620); format: functional; details: Homo sapiens
Caspase-3 = target: T5, Caspase-3 (Homo sapiens, UniProt P42574); format: functional;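 note: Dose-response selectivity test against caspase-3 for candidate inhibitors of sentrin-specific proteases (SENPs)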
T5 sequence (P42574 whole entry): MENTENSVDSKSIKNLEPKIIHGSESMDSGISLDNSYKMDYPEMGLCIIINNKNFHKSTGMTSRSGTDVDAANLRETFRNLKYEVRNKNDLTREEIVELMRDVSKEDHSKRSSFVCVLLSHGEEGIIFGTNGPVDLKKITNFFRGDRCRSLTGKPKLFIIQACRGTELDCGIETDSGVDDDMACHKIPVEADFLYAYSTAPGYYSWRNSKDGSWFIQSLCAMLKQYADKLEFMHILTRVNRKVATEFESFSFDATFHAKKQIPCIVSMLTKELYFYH

[16] = target: T6, Oxysterols receptor LXR-beta (Homo sapiens, UniProt P55055); format: functional, cell-based;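 note: Cell-based luminescence dose-response assay of agonist activity at LXR, run as a confirmatory counterscreen to a daf-12 agonist screen; HEK293 cells with Gal4-LXR fusion and GAL4-driven luciferase reporter; agonist potency from rising luciferase signal of a Gal4-LXR reporter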
T6 sequence (P55055 whole entry): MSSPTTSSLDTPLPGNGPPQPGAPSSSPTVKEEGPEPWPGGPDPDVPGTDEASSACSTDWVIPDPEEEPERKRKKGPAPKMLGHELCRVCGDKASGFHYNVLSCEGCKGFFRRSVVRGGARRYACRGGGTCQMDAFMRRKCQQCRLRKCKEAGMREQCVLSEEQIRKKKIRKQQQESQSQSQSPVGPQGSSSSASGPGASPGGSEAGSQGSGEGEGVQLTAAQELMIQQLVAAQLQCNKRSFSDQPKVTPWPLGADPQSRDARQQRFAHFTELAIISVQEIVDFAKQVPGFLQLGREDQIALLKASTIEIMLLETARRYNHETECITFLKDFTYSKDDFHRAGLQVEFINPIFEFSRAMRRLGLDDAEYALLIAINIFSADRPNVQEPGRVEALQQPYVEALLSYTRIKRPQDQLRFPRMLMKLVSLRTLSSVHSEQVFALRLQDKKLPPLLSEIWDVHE

[17] = target: T7, Sentrin-specific protease 6 (Homo sapiens, UniProt Q9GZR1); format: functional;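 note: Luminescence-based dose-response confirmatory assay of SENP6 inhibition, following up an ultra-high-throughput screen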
T7 sequence (Q9GZR1 whole entry): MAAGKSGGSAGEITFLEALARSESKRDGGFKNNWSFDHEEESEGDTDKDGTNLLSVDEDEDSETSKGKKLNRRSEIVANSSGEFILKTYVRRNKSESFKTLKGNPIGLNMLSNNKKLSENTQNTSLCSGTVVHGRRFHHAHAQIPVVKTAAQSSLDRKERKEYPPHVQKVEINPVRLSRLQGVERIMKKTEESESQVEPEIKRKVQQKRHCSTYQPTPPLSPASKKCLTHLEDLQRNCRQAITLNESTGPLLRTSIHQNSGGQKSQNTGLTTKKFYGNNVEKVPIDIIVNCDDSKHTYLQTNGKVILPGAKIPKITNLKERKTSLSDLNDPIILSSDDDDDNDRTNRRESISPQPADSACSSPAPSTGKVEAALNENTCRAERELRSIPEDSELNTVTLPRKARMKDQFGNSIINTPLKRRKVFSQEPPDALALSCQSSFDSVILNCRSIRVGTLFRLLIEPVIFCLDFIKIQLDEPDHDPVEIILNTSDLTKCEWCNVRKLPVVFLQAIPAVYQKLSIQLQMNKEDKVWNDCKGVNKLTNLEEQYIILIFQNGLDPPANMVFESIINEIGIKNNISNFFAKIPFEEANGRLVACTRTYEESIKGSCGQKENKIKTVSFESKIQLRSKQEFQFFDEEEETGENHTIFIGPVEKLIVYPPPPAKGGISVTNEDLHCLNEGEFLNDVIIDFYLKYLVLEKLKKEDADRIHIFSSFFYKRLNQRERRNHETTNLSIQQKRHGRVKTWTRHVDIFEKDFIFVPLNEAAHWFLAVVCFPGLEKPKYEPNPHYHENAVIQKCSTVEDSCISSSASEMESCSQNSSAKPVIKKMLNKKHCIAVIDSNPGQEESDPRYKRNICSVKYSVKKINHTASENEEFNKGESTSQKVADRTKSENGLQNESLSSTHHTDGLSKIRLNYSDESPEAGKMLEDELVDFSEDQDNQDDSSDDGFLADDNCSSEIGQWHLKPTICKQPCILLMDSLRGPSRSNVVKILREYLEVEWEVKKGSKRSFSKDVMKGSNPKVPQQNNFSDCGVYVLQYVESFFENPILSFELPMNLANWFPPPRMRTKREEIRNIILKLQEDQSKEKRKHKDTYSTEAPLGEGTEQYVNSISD

[18] = target: Luciferin 4-monooxygenase (Photinus pyralis, UniProt P08659); assay: Counter Screen for Luciferase-based Assay Positives. [Related pubchem assays: 620, 618, 411 ]
Chain of Luciferin 4-monooxygenase (P08659 whole entry): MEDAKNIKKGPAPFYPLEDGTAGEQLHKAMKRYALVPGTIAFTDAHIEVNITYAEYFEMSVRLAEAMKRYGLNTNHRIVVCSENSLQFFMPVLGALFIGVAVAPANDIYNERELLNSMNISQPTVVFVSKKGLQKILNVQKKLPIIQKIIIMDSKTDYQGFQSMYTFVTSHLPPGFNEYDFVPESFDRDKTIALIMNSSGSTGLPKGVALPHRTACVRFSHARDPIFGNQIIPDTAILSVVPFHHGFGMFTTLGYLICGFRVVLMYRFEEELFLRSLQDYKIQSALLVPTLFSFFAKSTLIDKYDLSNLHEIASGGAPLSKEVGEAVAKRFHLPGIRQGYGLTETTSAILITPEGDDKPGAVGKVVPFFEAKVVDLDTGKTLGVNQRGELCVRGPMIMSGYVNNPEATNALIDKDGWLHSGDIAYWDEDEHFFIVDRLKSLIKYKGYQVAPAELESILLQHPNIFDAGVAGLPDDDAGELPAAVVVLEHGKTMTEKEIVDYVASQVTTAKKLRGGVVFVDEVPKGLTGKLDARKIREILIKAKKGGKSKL

Chain of FAD-linked sulfhydryl oxidase ALR (P55789 whole entry): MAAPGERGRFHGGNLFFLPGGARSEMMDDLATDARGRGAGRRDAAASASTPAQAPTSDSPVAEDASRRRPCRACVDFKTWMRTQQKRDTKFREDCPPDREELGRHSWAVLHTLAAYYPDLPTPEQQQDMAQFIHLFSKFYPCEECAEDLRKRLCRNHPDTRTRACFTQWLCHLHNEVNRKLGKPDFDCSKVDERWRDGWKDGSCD
Chain of Paired box protein Pax-8 (Q06710 whole entry, the tested form may be a part): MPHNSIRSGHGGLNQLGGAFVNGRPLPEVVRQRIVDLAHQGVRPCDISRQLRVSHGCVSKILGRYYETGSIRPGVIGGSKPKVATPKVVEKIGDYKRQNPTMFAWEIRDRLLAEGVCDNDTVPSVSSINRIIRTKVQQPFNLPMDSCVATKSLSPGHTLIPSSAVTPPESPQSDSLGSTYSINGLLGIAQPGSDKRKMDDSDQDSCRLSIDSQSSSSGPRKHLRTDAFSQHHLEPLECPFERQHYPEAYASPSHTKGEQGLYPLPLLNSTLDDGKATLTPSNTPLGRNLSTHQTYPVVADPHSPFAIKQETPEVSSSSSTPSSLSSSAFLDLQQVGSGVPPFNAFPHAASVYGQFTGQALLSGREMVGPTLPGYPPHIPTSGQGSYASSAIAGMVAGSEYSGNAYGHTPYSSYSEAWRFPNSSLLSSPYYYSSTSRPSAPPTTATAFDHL

IC50 [2]: 45.6 µM (active)
SMILES: COc1ccc(-c2cc(-c3ccc(OC)c(OC)c3)[nH]n2)c(O)c1
CC50 [1]: 46.3 µM (active)

SMILES: Nc1ccc(-c2nc3ccc(C(=O)O)cc3s2)cc1
AC50 [3]: 0.866 µM (active)
AC50 [4]: 0.839 µM (active)
AC50 [5]: 48.6 µM (active)
AC50 [6]: 1.91 µM (active)
AC50 [7]: 0.749 µM (active)
AC50 (Paired box protein Pax-8): 2.6 µM (active)
AC50 [8]: 4.57 µM (active)
IC50 (Aminopeptidase N): 25.7 µM (active)
IC50 [9]: > 39.8 µM (not active)
AC50 [10]: 1.03 µM (active)
AC50 [11]: 0.649 µM (active)
AC50 [12]: 30.4 µM (active)
AC50 (HeLa): 313 µM (active)
AC50 [13]: 1.6 µM (active)

SMILES: COc1cc([N+](=O)[O-])ccc1N/C=C/C(=O)c1cccs1
IC50 [14]: 2.62 µM (active)
IC50 [15]: 0.863 µM (active)
EC50 (HT-1080): > 50 µM (not active)
IC50 (Caspase-3): 1.53 µM (active)
EC50 [16]: > 67.5 µM (inactive)
EC50 (cells): > 67.5 µM (inactive)
IC50 [17]: 1.15 µM (active)
EC50 [18]: 4.17 µM (active)
